System: Mus musculus
Assay: Compound was evaluated for […] antagonist activity towards Mouse vas deferens(MVD)
Assay type: functional

CN(C(=O)Cc1ccc(Cl)c(Cl)c1)[C@H](CN1CCCC1)c1cccc(N=C=S)c1
IC50: 0.0111 µM
